Experimental data from patent US7671181B2, “Polynucleotides encoding coccidian parasite casein kinase I, a chemotherapeutic target for antiprotozoal agents” (Merck Sharp & Dohme Corp., priority 2004, dated 2010).

Target: TgCKIα (Toxoplasma gondii, UniProt Q6QNM1)
Assay: Casein kinase assay, TgCKIα (recombinant FLAGTgCKIα or partially purified native)
Assay type: biochemical
Set-up: Km(app), native TgCKIα; other: substrate titration, 2 μM ATP; IC50, nativeTgCKIα; other: partially purified native enzyme from Toxoplasma tachyzoites; sensitivity of native TgCKIα phosphopeptide kinase activity (HiTrapQ fractions 5-9); other: 0.2 μM hymenialdisine or 1
Details: 0.2 μM hymenialdisine or 1 μM purvalanol B
Procedure: Protein kinase assays—Casein kinase activity was assayed essentially as described (Donald, R. G. K. et al., 2002, supra) using 96-well phosphocellulose plates (MAPH-NOB, Millipore; Billerica, Mass.) to capture ^33P-phosphorylated peptide or casein substrates. Kinase reactions were carried out in 40 μl volumes containing 25 mM Hepes, pH 7.4, 10 mM MgCl2, 20 mM β-glycerophosphate, 1 mM DTT, 250 μM substrate, 1 mg/mL BSA, 2 μM ATP, and 0.01 μM [γ-^33P]ATP (Perkin-Elmer, 3000 Ci/mmol). […] Casein (5% solution), partially dephosphorylated α-casein and β-casein were obtained from Sigma.
A variety of commercially available peptide substrates were evaluated. From Calbiochem (San Diego, Calif.): CKI substrate (RRKDLHDDEEDEAMSITA; SEQ ID NO:13); CKII substrate (RRADDSDDDDD; SEQ ID NO:14); Syntide-2 substrate (PLARTLSVAGLPGKK; SEQ ID NO:15); CaM kinase II substrate (281-291) (MHKNETVECLK; SEQ ID NO:16). From Promega: CKI substrate (DDDEESITRR; SEQ ID NO:17) and kemptide (LRRASLG; SEQ ID NO:18). From New England Biolabs (Beverly, Mass.): CKI phosphopeptide substrate (KRRRALS(p)VASLPGL; SEQ ID NO:19), and CKII substrate (RRREEETEEE; SEQ ID NO:20). PKG assays were performed with kemptide as substrate and 10 μM cGMP. CDPK was assayed with Syntide-2 substrate and in the presence of 100 μM CaCl2.
Purification of recombinant CKI enzymes—E. coli strain BL21 Origami™ (Novagen) was transformed with FLAGTgCKIα and FLAGTgCKIβ expression vectors, and colonies were expanded into 250 mL LB cultures grown at 37° C. Expression was induced with 1 mM IPTG once cultures had reached an OD600nm of 0.3-0.5, and the transformed bacteria were harvested 4-6 hours later. Cell pellets were resuspended in 15 mL of lysis buffer containing protease inhibitors and lysates prepared as described by the supplier (Bugbuster™ reagents, Novagen). The concentration of NaCl in the lysate was adjusted to 0.5 M, and 0.5 mL of FLAG-agarose beads were added (Sigma). The mixture was allowed to rock in a Nutator mixer (Becton-Dickinson; San Jose, Calif.) for 2 hours at 4° C. The slurry was then poured into an empty column and the matrix washed with 50 mL of wash buffer (50 mM Tris-HCl, pH 7.4, 0.5M NaCl, 10% glycerol, 1 mM DTT, 1 mM EDTA). […] Protein was measured with a micro-BCA reagent (Pierce) following a TCA-sodium deoxycholate step to remove residual FLAG peptide (Brown et al., 1989, Anal. Biochem. 180:136-139). […]
Preparations of FLAGTgCKIα and FLAGTgCKIβ were purified further on a SMART system FPLC 0.1 mL MonoQ anion exchange column (Pharmacia; New York, N.Y.) equilibrated in buffer A (50 mM Hepes, pH 7.4, 10% glycerol, 1 mM DTT) at room temperature. […] A linear salt gradient was applied (0-500 mM in 3 mL at 100 μl/min) and 100 μl fractions were collected and analyzed by SDS-PAGE and for CKI activity. […]

Chain of TgCKIα (Q6QNM1 whole entry, looked up): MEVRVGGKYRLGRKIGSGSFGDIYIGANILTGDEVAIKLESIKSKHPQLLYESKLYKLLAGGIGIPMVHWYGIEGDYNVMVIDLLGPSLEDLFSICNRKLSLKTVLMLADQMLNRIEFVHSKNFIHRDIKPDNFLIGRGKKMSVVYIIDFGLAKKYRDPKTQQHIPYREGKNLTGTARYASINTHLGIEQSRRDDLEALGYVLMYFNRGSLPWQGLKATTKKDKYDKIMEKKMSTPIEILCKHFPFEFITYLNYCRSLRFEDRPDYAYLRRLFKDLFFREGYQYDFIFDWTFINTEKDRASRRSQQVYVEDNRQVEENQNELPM

CC(C)[C@H](CO)Nc1nc(Nc2ccc(C(=O)O)c(Cl)c2)c2ncn(C(C)C)c2n1 [purvalanol B]
sensitivity of native TgCKIα phosphopeptide kinase activity (HiTrapQ fractions 5-9): sensitive
